Target: T1, Recombinant human HSP90α (Homo sapiens, UniProt P07900)
T1 construct: host or cells: E. coli
Assay: radioligand filter binding test with [3H]17AAG (HSP90 inhibition)
Conditions: competition with [3H]17AAG 0.08 μM; HSP90 1.5 μg/assay; 22° C., 30 min
From the text: Test Method for the Measurement of HSP90 Inhibitors
The binding of geldanamycin or 17- allylamino-17-demethoxygeldanamycin (17AAG) to HSP90 and competitive inhibition thereof can be utilised in order to determine the inhibitory activity of the compounds according to the invention (Carreras et al. 2003, Chiosis et al. 2002).
In the specific case, a radioligand filter binding test is used. The radio-ligand used here is tritium-labelled 17-allylaminogeldanamycin, [3H]17AAG. This filter binding test allows a targeted search for inhibitors which interfere with the ATP binding site.
Recombinant human HSP90α (E. coli expressed, 95% purity);
[3H]17AAG (17-allylaminogeldanamycin, [allylamino-2,3-^3H. Specific activity: 1.11×10^12 Bq/mmol (Moravek, MT-1717);
HEPES filter buffer (50 mM HEPES, pH 7.0, 5 mM MgCl2, BSA 0.01%) Multiscreen FB (1 μm) filter plate (Millipore, MAFBNOB 50).
The 96-well microtitre filter plates are firstly irrigated and coated with 0.1% of polyethylenimine.
The test is carried out under the following conditions:
Reaction temperature 22° C.
Reaction time: 30 min., shaking at 800 rpm
50 mM HEPES HCI, pH 7.0, 5 mM MgCl2, 0.01% (w/v) BSA
At the end of the reaction, the supernatant in the filter plate is removed by suction with the aid of a vacuum manifold (Multiscreen Separation System, Millipore), and the filter is washed twice.
The filter plates are then measured in a beta counter (Microbeta, Wallac) with scintillator (Microscint 20, Packard).
“% of control” is determined from the “counts per minutes” values and the IC-50 value of a compound is calculated therefrom.

IC50 [nM] | SMILES
44 | CN(Cc1ccccc1)C(=O)c1cc(-c2ccnn2-c2ccccc2Cl)c(O)cc1O [Compound A2, 5-[5-(N-Benzyl-N-methylaminocarbonyl)-2,4-dihydroxyphenyl]-1-(2-chlorophenyl)-1H-pyrazole]
43 | Cc1ccccc1-n1nccc1-c1cc(C(=O)N(C)Cc2ccc(F)cc2)c(O)cc1O [Compound A5, 5-{5-[N-(4-Fluorobenzyl)-N-methylaminocarbonyl]-2,4-dihydroxyphenyl}-1-(2-methylphenyl)-1H-pyrazole]
54 | Cc1ccccc1-n1nccc1-c1cc(C(=O)N(C)Cc2ccccc2F)c(O)cc1O [Compound A6, 5-{5-[N-(2-Fluorobenzyl)-N-methylaminocarbonyl]-2,4-dihydroxyphenyl}-1-(2-methylphenyl)-1H-pyrazole]
30 | Cc1ccccc1-n1nccc1-c1cc(C(=O)N(C)Cc2cccc(F)c2)c(O)cc1O [Compound A7, 5-{5-[N-(3-Fluorobenzyl)-N-methylaminocarbonyl]-2,4-dihydroxyphenyl}-1-(2-methylphenyl)-1H-pyrazole]
40 | COc1ccccc1CN(C)C(=O)c1cc(-c2ccnn2-c2ccccc2C)c(O)cc1O [Compound A9, 5-{5-[N-(2-Methoxybenzyl)-N-methylaminocarbonyl]-2,4-dihydroxyphenyl}-1-(2-methylphenyl)-1H-pyrazole]
33 | Cc1ccccc1-n1nccc1-c1cc(C(=O)N(C)Cc2ccccc2)c(O)cc1O [Compound A17, 5-[5-(N-Benzyl-N-methylaminocarbonyl)-2,4-dihydroxyphenyl]-1-(2-methylphenyl)-1H-pyrazole]
31 | Cc1ccccc1-n1nccc1-c1cc(C(=O)N(C)Cc2cccc(Br)c2)c(O)cc1O [Compound A20, 5-{5-[N-(3-Bromobenzyl)-N-methylaminocarbonyl]-2,4-dihydroxyphenyl}-1-(2-methylphenyl)-1H-pyrazole]
27 | Cc1ccccc1CN(C)C(=O)c1cc(-c2ccnn2-c2ccccc2C)c(O)cc1O [Compound A23, 5-{5-[N-(2-Methylbenzyl)-N-methylaminocarbonyl]-2,4-dihydroxyphenyl}-1-(2-methylphenyl)-1H-pyrazole]
20 | Cc1ccc(CN(C)C(=O)c2cc(-c3ccnn3-c3ccccc3C)c(O)cc2O)c(C)c1 [Compound A24, 5-{5-[N-(2,4-Dimethylbenzyl)-N-methylaminocarbonyl]-2,4-dihydroxyphenyl}-1-(2-methylphenyl)-1H-pyrazole]
54 | Cc1ccccc1-n1nccc1-c1cc(C(=O)N(C)Cc2ccc3c(c2)OCO3)c(O)cc1O [Compound A25]
26 | Cc1ccccc1-n1nccc1-c1cc(C(=O)N(C)Cc2c(F)cccc2Cl)c(O)cc1O [Compound A30, 5-{5-[N-(2-Chloro-6-fluorobenzyl)-N-methylaminocarbonyl]-2,4-dihydroxyphenyl}-1-(2-methylphenyl)-1H-pyrazole]
320 | COc1ccc(CN(C)C(=O)c2cc(-c3ccnn3-c3ccccc3C)c(O)cc2O)c(OC)c1 [Compound A31, 5-{5-[N-(2,4-Dimethoxybenzyl)-N-methylaminocarbonyl]-2,4-dihydroxyphenyl}-1-(2-methylphenyl)-1H-pyrazole]
52 | COc1ccc(Cl)cc1CN(C)C(=O)c1cc(-c2ccnn2-c2ccccc2C)c(O)cc1O [Compound A32, 5-{5-[N-(3-Chloro-6-methoxybenzyl)-N-methylaminocarbonyl]-2,4-dihydroxyphenyl}-1-(2-methylphenyl)-1H-pyrazole]
220 | Cc1ccccc1-n1nccc1-c1cc(C(=O)N(C)Cc2ccc(Cl)cc2Cl)c(O)cc1O [Compound A35, 5-{5-[N-(2,4-Dichlorobenzyl)-N-methylaminocarbonyl]-2,4-dihydroxyphenyl}-1-(2-methylphenyl)-1H-pyrazole]
160 | CN(Cc1ccccn1)C(=O)c1cc(-c2ccnn2-c2ccccc2Cl)c(O)cc1O [Compound A60, 5-{5-[N-(Pyridin-2-ylmethyl)-N-methylaminocarbonyl]-2,4-dihydroxyphenyl}-1-(2-chlorophenyl)-1H-pyrazole]

From patent US7906657B2 (Merck Patent Gesellschaft MIT Beschraenkter Haftung, priority 2006, dated 2011)
